Patent US12378247B2, “Mesylate salt of para-topolin, compositions containing said salt and use thereof” (USTAV EXPERIMENTALNI BOTANIKY AV CR, V. V. I., priority 2020, dated 2025)

How the values were obtained:
[1] = ORAC (Oxygen Radical Absorbance Capacity), ability to scavenge free radicals; format: biochemical; conditions: n = 3
Experimental: The ability of the substance to scavenge free radicals in vitro was determined using the ORAC (Oxygen Radical Absorbance Capacity) method. Briefly, 100 μl of fluorescein ([…]) and 25 μl of tested substance solution were pipetted into each well of a 96-well microtiter plate preheated to 37° C. The reaction itself was started by the addition of 25 μL 250 mM AAPH. After shaking for 5 s, the fluorescence (Ex. 485 nm, Em. 510 nm) was read every 3 min for 90 min using an Infinite 200 instrument (TECAN, Switzerland). The area under the curve was used to express the antioxidant capacity relative to trolox, which is used as a standard. […] Such activities are likely to be closely related to the electron-rich C6-hydroxybenzylamino substituent system.

[2] = system: Human diploid fibroblast BJ; assay: MTT cytotoxicity assay in normal fibroblasts; format: cell-based; conditions: 72 hours
Experimental: MTT (metabolic tetrazolium toxicity) assay is a standard colorimetric assay for evaluation of cytotoxicity. Mitochondrial dehydrogenase activity converts yellow MTT into violet formazan which is measured by means of spectrometry. Human diploid fibroblast BJ (passage 18-22) were seeded into 96-well plate (5.000 cells per well). After 6 hours cultivation medium (DMEM with 5 g/l glucose, 2 mM glutamine, 100 U/ml penicillin, […] streptomycin, 10% fetal calf serum and sodium bicarbonate) was replaced with the cultivation medium containing test compounds in concentration range of 0-200 μM. Highest concentration was adjusted if the solubility of the compound was limiting. Every concentration was tested in pentaplicate. MTT was added to the cells after 72 hours incubation (final concentration 0.5 mg/ml) and incubation continued for another 3 hours. MTT was solubilised by DMSO and absorbance at 570 nm was measured. Growth inhibition (GI) was estimated using the following equitation: GI=(mean A drug exposed wells-mean Ablank/mean Acontrol wells−mean Ablank)×100%. The GI20 value, the drug concentration causing 20% decrease in mitochondrial dehydrogenase activity, was calculated from the obtained dose response curves.

Rat glioma C6 cells = assay: Anti-inflammatory activity: isoproterenol-induced intracellular cAMP synthesis; format: cell-based; conditions: isoproterenol-induced cAMP, C6 cells
Experimental: The anti-inflammatory activity of para-topolin and para-topolin mesylate was determined; cytokinin kinetin was also evaluated as a control. Rat glioma C6 cells (ATCC No. CCL107) were cultured in a monolayer in chemically defined beser medium containing Ham's F10/minimal essential medium (1:1 v/v), 2 mM L-glutamine, 1% (v/v). Minimum vitamins of essential medium (100×), 1% (v/v) minimum essential amino acids (100×), 100 U/ml penicillin, […] streptomycin and 30 nM sodium selenite. Incubation was performed at 37° C. in a 100% humidified atmosphere. The assays were performed in logarithmic growth phase at a density of 2.5×10^5 cells/cm^2. Intracellular cAMP synthesis was induced by the addition of 5 mM (−)-isoproterenol; at the same time, various concentrations of tested compounds were added at the same time as (−)-isoproterenol. After 30 minutes of incubation, the cellular amount of CAMP was determined by ELISA (cAMP-enzyme immunoassay from Amersham). IC50 values were determined from the […] dose-response curve.

| Compound | ORAC Average(TE), Trolox equivalents on equimolar basis [1] | Cytotoxicity for Human Diploid Fibroblasts GI20 [2] | Anti-inflammatory activity (in words) (Rat glioma C6 cells) |
| --- | --- | --- | --- |
| Oc1ccccc1CNc1ncnc2nc[nH]c12 [6-(2-hydroxybenzylamino)purine (oT), 6-(2-hydroxybenzylamino)purine] | 7.026 TE | – | – |
| Oc1cccc(CNc2ncnc3nc[nH]c23)c1 [6-(3-hydroxybenzylamino)purine (mT), 6-(3-hydroxybenzylamino)purine] | 4.509 TE | – | – |
| OC[C@H]1O[C@@H](n2cnc3c(NCc4ccccc4)ncnc32)[C@H](O)[C@@H]1O [6-(benzylamino)purine riboside] | – | 1700 nM | – |
| c1coc(CNc2ncnc3nc[nH]c23)c1 [6-furfurylaminopurine (kinetin), 6-furfurylaminopurine] | – | >167000 nM | inactive |
| OC[C@H]1O[C@@H](n2cnc3c(NCc4ccco4)ncnc32)[C@H](O)[C@@H]1O [6-furfurylaminopurine riboside] | – | 2100 nM | – |
